How the values were obtained:
[1] = system: cancer related genes in bladder tumors; assay: Gene expression analysis (RNA sequencing) of tumors; format: in vivo, human; details: log FC≤−0.10; individual tumors
adiponectin = assay: Adiponectin-ELISA of urine samples; format: in vivo, human; details: treated patients vs placebo, P<0.001
Method: To investigate levels of adiponectin protein in the urine samples of patients, an Adiponectin-ELISA test (Proteintech) was performed. The signal (absorbance) values were measured at 480 nm and interpolated to concentration (pg/mL) values using a linear regression statistical analysis. […] Graph showing urine adiponectin levels in both groups, with samples taken pre Visit 1, post Visit 1, Post Visit 3 and Post Visit 6. Line show change in median urine adiponectin levels (FIG. 4). There was statistically significant positive correlation between number of cells (shed) in urine samples and measure adiponectin levels (P=0,002), using linear regression (FIG. 4). Statistical analysis was done in GraphPad Prism.

[2] = system: non-muscle invasive bladder cancer tumors; assay: Tumor histopathology of biopsies; format: in vivo, human; details: treated tumors compared to the placebo group
Source text: The tumor response was further evaluated by histopathology. […] A complete response was confirmed by a lack of tumor tissue in the control biopsy or presence of minor residual tissue stroma without tumor cells. In the partial responders, fragmentation and cell shedding left few intact papilli and the tissue surface appeared denuded. In addition, tumor tissue surrounding the target lesion was affected in the responding patients, including satellite tumors, which had disappeared.
Tumor biopsies, collected at the time of surgery were evaluated by histopathology, using established parameters for scoring of Grade and Stage/Invasiveness. Tissue samples were analyzed by a designated study uro-pathologist. Both grading classifications (WHO 1973 and 2004/2016) were used. Biopsies from healthy tissue areas distant from the tumor were collected for comparison.

bladder tumor cells = assay: Cell shedding into urine after intravesical instillation; format: in vivo, human
Method: Intravesical alpha1-oleate instillations triggered a rapid tumor response, which was quantified by comparing the pre-instillation sample in each patient to the first urine sample obtained post instillation (≤2 hours).
To quantify the shedding of cells and cell clusters into the urine, samples were obtained from each patient prior to and after each instillation of alpha1-oleate or placebo (Visit 1-Visit 6). Cell shedding was quantified by counting the total number of epithelial cells in a unit of uncentrifuged urine under light microscopy, using a hemocytometer chamber. Changes in cell shedding were quantified at each visit, by comparing cell numbers in samples obtained before and after each instillation. The cell clusters were scored based on the examination of these samples by an experienced pathologist on a range of 0-2 where 0=no clusters and 2=the highest number of clusters.

NMIBC = assay: Overall tumor response in patients with NMIBC (clinical and molecular end points); format: in vivo, human
Source text: Selecting relevant treatment end points is especially challenging for conditions where cure is elusive. New molecular tools may offer increased resolution of the disease response, to complement clinical observation and understand the potential of new drug candidates. This study used a combination of clinical and molecular tools to define the tumor response to alpha1-oleate in patients with NMIBC. In addition to the evaluation of the change in tumor size, the tumor response was defined by the shedding of tumor cells and fragments into the urine, by the uptake of alpha1-oleate by the tumor and by evidence of tumor cell specific apoptosis. Gene expression analysis of tumor RNA further identified interesting differences between the groups defined as CR, PR and NR by visual inspection.
After diagnosis and informed consent, the subjects received intra-vesical instillations of either alpha1-oleate or placebo on six occasions during one month preceding a scheduled transurethral resection (TURB). A safety follow-up was performed 52 days after the first instillation.

shed bladder tumor cells = assay: DNA strand breaks by TUNEL staining of shed cells; format: in vivo, human; details: shed cells post-instillation vs pre-instillation, all treated patients
Method: Double strand DNA breaks were quantified by TUNEL staining, comparing shed cells post alpha1-oleate instillation, to the pre-instillation samples.
DNA fragmentation was detected using the terminal deoxynucleotidyl transferase dUTP nick end-labelling (TUNEL) assay (Click-iT TUNEL Alexa Fluor 488 imaging assay kit, ThermoFisher). Tissue sections were de-paraffinized with xylene followed by serial dehydration with ethanol (100, 95, 75 and 50%). Dehydrated sections were fixed (4% PFA, 15 min), permeabilized (DNase-free Protease K solution 20 μg/mL, 15 min) and incubated with TUNEL reaction mixture containing TdT for 60 min at 37° C. After the TUNEL reaction, sections were incubated with Click-iT reaction mixture (30 min, 37° C.). Sections were counterstained with DAPI (1 μg/mL, 5 minutes), mounted in Fluoromount aqueous mounting media, and analyzed by fluorescence microscopy (Zeiss). Fluorescence intensities were quantified by ImageJ and net mean fluorescence intensity calculated after subtraction of background fluorescence.

[3] = system: cancer related genes in bladder tumors; assay: Gene expression analysis (RNA sequencing) of tumors; format: in vivo, human
Source text: The tumor response was characterized in greater detail by sequencing of RNA extracted from tumor tissue obtained at TURB and from biopsies obtained from adjacent tissue with a healthy appearance.
Individual tumors in patients treated with alpha1-oleate were defined as complete responders (CR), if the tumor was removed, partial responders (PR) if the tumor size was reduced, stable disease if the tumor size was unchanged (SD) or as non-responders, if the tumor size increased (Cut off=25% change in tumor size) (FIG. 1a). The effects of alpha1-oleate on gene expression were further examined for individual patients and tumors, using […], and differences were detected relative to the clinical treatment response of each tumor. By Principal component analysis (PCA FIG. 1b) the majority of responding tumors formed a cluster with a similar overall gene expression profile.
RNA was extracted from tissues stabilized in RNAlater using the AllPrep DNA/RNA/miRNA Universal Kit. Disruption was in the TissueLyser system and CK28 Precellys tubes and by homogenization in the QIAshredder homogenizer. The quantity and quality of the RNA samples were evaluated using NanoDrop and Agilent 2100 Bioanalyzer. RNA samples were prepared by Illumina TruSeq Stranded mRNA Library Prep Kit (20020594), and libraries were multiplexed and sequenced using NextSeq 500/550 High Output Kits (v2.5 2×75 Cycles) with an average of 22 million reads per sample. Raw sequencing data was demultiplexed using bcl2fastq (version 2.18) and RSEM (1.3) was used for abundance estimation using the human genome release 37/Ensemble 75. Samples were thoroughly QCed and visualized using dimensionality reduction (i.e PCA), MA-plots as well as RNA-seq intrinsic biases (such as GC bias, transcriptome complexity and alignment quality). Differential expression analysis was performed using R (version 3.4) and the packages limma and DESeq2. Fold change were calculated by comparing tumors in the treated to the placebo group. Relative expression levels were analyzed and genes with an absolute fold change >2.0 and P<0.05 were considered as differentially expressed. Heat-maps were constructed using the Gitools 2.1.1 software. Differentially expressed genes were functionally characterized using the Ingenuity Pathway Analysis version 57662101 (IPA, Qiagen) software.
In a clinical study from an ongoing randomized, placebo-controlled phase II trial in patients with non-muscle invasive bladder cancer (NMIBC), treatment with the tumor-killing peptide-lipid complex Alpha1-Hamlet, by instillations to the patients' bladders, has shown promising therapeutic effects. Tumor tissue samples of patients (obtained post-treatment at visit number 6) were analyzed.

skin papillomas = details: topical application; cited from earlier work
tumor cells = details: cited from earlier work
bladder cancer cells = details: local instillations; cited from earlier work

Molecule: alpha1-oleate: tumor-killing peptide-lipid complex of the synthetic alpha1 peptide (aa 1-39 of human alpha-lactalbumin) and oleate
- number of genes strongly down-regulated in all treated tumors [1]: 297
- urine adiponectin levels (adiponectin): significantly higher
- tumor response by histopathology [2]: Significant changes
- cell numbers in urine post instillation (bladder tumor cells; at each visit compared to each pre-instillation sample): highly significant increase
- cell shedding (bladder tumor cells; first urine sample post instillation (≤2 hours)): detected in all patients
- responders by tumor cell shedding, apoptosis and inhibition of cancer related genes (NMIBC): all patients in this study were definable as responders
- TUNEL staining (double strand DNA breaks) (shed bladder tumor cells): marked increase
- ADIPOQ gene expression FC ([3]; 8.5 mM treated patients compared to placebo treated patients, tumor tissue post-treatment at visit 6): −5353.7
- number of genes regulated (heat map analysis) ([3]; RNA from tumor tissue obtained at TURB): over 3500
- PRAME log FC ([3]; all treated tumors): ≤ −10
- PTPRT log FC ([3]; all treated tumors): ≤ −10
- EGR3 expression ([3]; in vivo): strongly downregulated
- bladder cancer related genes ([3]; in vivo): strongly inhibited
- tumor microenvironment pathway genes (VEGFD, TGFB2, TGFB3, FGF1, FGF5, FGF7, FGF10, IGF1) ([3]; in vivo): downregulated
- ADIPOQ dependent molecules downregulated ([3]; network analysis): 66
- ADIPOQ dependent molecules strongly regulated ([3]; network analysis): 78
- ADIPOQ dependent molecules upregulated ([3]; network analysis): 12
- inhibited genes that were bladder cancer related ([3]; of the 297 inhibited genes): 31/297
- innate immune response genes ([3]; pathway analysis, cytokine storm signaling and G protein coupled receptor signaling): strongly down-regulated

B1: HAMLET: human alpha-lactalbumin made lethal to tumor cells; complex of partially unfolded α-lactalbumin and oleic acid (protein, UniProt P00709 20-142, looked up)
Alpha-lactalbumin: KQFTKCELSQLLKDIDGYGGIALPELICTMFHTSGYDTQAIVENNESTEYGLFQISNKLWCKSSQVPQSRNICDISCDKFLDDDITDDIMCAKKILDIKGIDYWLAHKALCTEKLEQWLCEKL
modifications: oleic acid complex
- effect on skin papillomas (skin papillomas): removed or reduced skin papillomas
- tumoricidal activity in vitro (tumor cells): kills many types of tumor cells
- effect on bladder cancer cells (bladder cancer cells): killed bladder cancer cells but not healthy cells in surrounding tissues
- effect on tumor size (bladder cancer cells): caused a reduction in tumor size

B2: BAMLET: complex made by mixing bovine alpha-lactalbumin with oleic acid (protein, UniProt P00711 20-142, looked up)
Alpha-lactalbumin: EQLTKCEVFRELKDLKGYGGVSLPEWVCTTFHTSGYDTQAIVQNNDSTEYGLFQINNKIWCKDDQNPHSSNICNISCDKFLDDDLTDDIMCVKKILDKVGINYWLAHKALCSEKLDQWLCEKL
modifications: oleic acid complex
- effects on tumour cells compared with HAMLET (tumor cells; Rammer et al. (2010)): qualitatively similar effects
